Here are results for 20 molecules from patent US10508109B2 (priority 2015, dated 2019).

Counter-ions that a name gives are not always drawn. Like-named read-outs stand apart in the source and are kept apart here.

The subject of one assay is A549. Kind of assay: Cell-based assay, anti-proliferative activity (Cell Counting Kit-8, 72 hours). The settings on record: Homo sapiens, read-out: IC50 (μM) A549. On the procedure:
100 micro-L of cell suspension was seeded onto 96-well microtiter plate (ViewPlate-96FTC, PerkinElmer). […] Cellular growth was determined using Cell Counting Kit-8 (DOJINDO) at 72 hours after the exposure of the candidate inhibitors. […] Accurate IC50 values were calculated as described previously.

For a further assay, the system named is CCD-18Co. Described as above. The settings on record: Homo sapiens, read-out: IC50 (μM) CCD-18Co. On the procedure: (§1) Active candidate inhibitors against SUV39H2 were evaluated for their target-specific cytotoxicity using A549, HCT-116, HFL1, CCD-18Co and PC14. 100 micro-L of cell suspension was seeded onto 96-well microtiter plate (ViewPlate-96FTC, PerkinElmer). The initial cell concentration of A549, HCT-116, HFL1, CCD-18Co and PC14 were 3,000 cells/well, 2,000 cells/well and 2,500 cells/well, respectively. Cellular growth was determined using Cell Counting Kit-8 (DOJINDO) at 72 hours after the exposure of the candidate inhibitors. IC50 was used as an indicator of the anti-proliferative activity of the inhibitors, and calculated by serial dilution method (0, 1.5625, 3.125, 6.25, 12.5, 25, 50, and 100 micro-M). Accurate IC50 values were calculated as described previously.

In another assay the test system is HCT-116. Described as above. The settings on record: Homo sapiens, read-out: IC50 (μM) HCT-116. How it is done:
as §1

A further assay deals with HFL1. The assay is described as above. The settings on record: Homo sapiens, read-out: IC50 (μM) HFL1. On the procedure: as §1
Another assay has as its target SUV39H2 (Homo sapiens (Human), UniProt Q9H5I1). The settings on record: read-out: IC50 (μM) Suv 39H2 assay.
The mark [1] stands for this setting: A549 cells, Cell Counting Kit-8, 72 hours.
The mark [2] stands for this setting: CCD-18Co cells, Cell Counting Kit-8, 72 hours.
Where [3] appears, read: HCT-116 cells, Cell Counting Kit-8, 72 hours.
Setting [4] is: HFL1 cells, Cell Counting Kit-8, 72 hours.

Chain of SUV39H2 (Q9H5I1 whole entry): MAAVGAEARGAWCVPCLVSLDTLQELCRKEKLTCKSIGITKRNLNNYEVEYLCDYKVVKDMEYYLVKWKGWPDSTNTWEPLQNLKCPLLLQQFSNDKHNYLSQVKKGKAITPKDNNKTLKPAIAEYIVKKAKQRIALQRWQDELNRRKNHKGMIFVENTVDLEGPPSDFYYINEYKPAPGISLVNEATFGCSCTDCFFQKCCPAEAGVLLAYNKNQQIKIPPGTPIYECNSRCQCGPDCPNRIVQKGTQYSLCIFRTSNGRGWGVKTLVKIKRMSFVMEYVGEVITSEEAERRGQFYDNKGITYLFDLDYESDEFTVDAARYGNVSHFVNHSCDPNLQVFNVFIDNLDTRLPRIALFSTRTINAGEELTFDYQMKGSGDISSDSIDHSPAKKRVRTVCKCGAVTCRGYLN

The term IC50 denotes the concentration that gives 50% inhibition. Regarding `COc1cc(OC)c(-c2cn3ccc(NCCN)cc3n2)cc1Cl` [Example 10, N^1-(2-(5-chloro-2,4-dimethoxyphenyl)imidazo[1,2-a]pyridin-7-yl)ethane-1,2-diamine dihydrochloride], the half-inhibitory concentration (IC50) with A549 (A549, 72 h) stood at 6.8 µM; with CCD-18Co (CCD-18Co, 72 h) it was 7.1 µM; in the assay with HCT-116 (HCT-116, 72 h), 4.2 µM; in the assay on HFL1 (HFL1, 72 h) it was 3.7 µM; on SUV39H2, 0.015 µM.
With `COc1cc(OC)c(-c2cn3ccc(C4=CCN(CCF)CC4)cc3n2)cc1Cl` [Example 113, 2-(5-chloro-2,4-dimethoxyphenyl)-7-(1-(2-fluoroethyl)-1,2,3,6-tetrahydropyridin-4-yl)imidazo[1,2-a]pyridine], the IC50 with A549 (setting [1]) was 6.7 µM; in the assay on CCD-18Co (setting [2]), 7.6 µM; in the assay with HCT-116 (setting [3]), 6.7 µM; in the assay with HFL1 (setting [4]) it was 5.2 µM; on SUV39H2 (enzyme assay) it was 0.0571 µM.
Consider `COc1cc(OC)c(-c2cn3ccc(-c4cncc(N)c4)cc3n2)cc1Cl` [Example 27, 5-[2-(5-chloro-2,4-dimethoxyphenyl)imidazo[1,2-a]pyridin-7-yl]pyridin-3-amine], for which the IC50 worked out at 1.9 µM in the assay with A549 (setting [1]); 3.3 µM in the assay with CCD-18Co (setting [2]); 3.3 µM in the assay with HCT-116 (setting [3]); 1.8 µM in the assay with HFL1 (setting [4]); 0.0396 µM on SUV39H2 (enzyme assay).
With `COc1cc(OC)c(-c2cn3ccc(N4CCC(NC(=O)OC(C)(C)C)CC4)nc3n2)cc1Cl` [Example 36, tert-butyl (1-(2-(5-chloro-2,4-dimethoxyphenyl)imidazo[1,2-a]pyrimidin-7-yl)piperidin-4-yl)carbamate], the concentration for half-maximal inhibition (IC50) with A549 (setting [1]) was 5.6 µM; in the assay with CCD-18Co (setting [2]) it was 3.8 µM; in the assay with HCT-116 (setting [3]), 4.1 µM; in the assay with HFL1 (setting [4]), 3.2 µM; on SUV39H2 (enzyme assay) it was 0.0552 µM.
For `COc1cc(OC)c(-c2cn3ccc(N4CCCCC4)cc3n2)cc1Cl` [Example 25, 2-(5-chloro-2,4-dimethoxyphenyl)-7-(piperidin-1-yl)imidazo)[1,2-a]pyridine hydrobromide], in that order: 3 µM, 2.3 µM, 2 µM, 1.4 µM and 0.0122 µM.
For `COc1cc(OC)c(-c2cn3ccc(N4CCC(NC(=O)OC(C)(C)C)CC4)cc3n2)cc1Cl` [Example 14, tert-butyl {1-[2-(5-chloro-2,4-dimethoxyphenyl)imidazo[1,2-a]pyridin-7-yl]piperidin-4-yl}carbamate], in that order: 2.7 µM, 1.9 µM, 2 µM, 1.8 µM and 0.0341 µM.
For `COc1cc(OC)c(-c2cn3ccc(N4CCC(N)CC4)cc3n2)cc1Cl` [Example 15, 1-[2-(5-chloro-2,4-dimethoxyphenyl)imidazo[1,2-a]pyridin-7-yl]piperidin-4-amine], in that order: 3.5 µM, 6.7 µM, 3.4 µM, 2.7 µM and 0.0133 µM.
Consider `COc1cc(OC)c(-c2cn3ccc(N4CCC(N)CC4)nc3n2)cc1Cl` [Example 42, 1-(2-(5-chloro-2,4-dimethoxyphenyl)imidazo[1,2-a]pyrimidin-7-yl)-piperidin-4-amine hydrochloride], for which the IC50 stood at 10 µM with A549 (A549, 72 h); 13 µM in the assay on CCD-18Co (CCD-18Co, 72 h); 6.6 µM in the assay on HCT-116 (HCT-116, 72 h); 4.2 µM with HFL1 (HFL1, 72 h); 0.079 µM on SUV39H2.
For `COc1cc(OC)c(-c2cn3ccc(N4CCC(CN)CC4)cc3n2)cc1Cl` [Example 16, (1-(2-(5-Chloro-2,4-dimethoxyphenyl)imidazo[1,2-a]pyridin-7-yl)piperidin-4-yl)-methanamine hydrochloride], in that order: 8.8 µM, 14 µM, 8.7 µM, 11 µM and 0.0122 µM.
As for `COc1cc(OC)c(-c2cn3ccc(N4CCN(C)CC4)cc3n2)cc1Cl` [Example 106, 2-(5-chloro-2,4-dimethoxyphenyl)-7-(4-methylpiperazin-1-yl)imidazo[1,2-a]pyridine], the IC50 with A549 (setting [1]) came out at 6.3 µM; in the assay on CCD-18Co (setting [2]), 6.8 µM; in the assay with HCT-116 (setting [3]), 6.8 µM; with HFL1 (setting [4]) it was 3.9 µM; at SUV39H2 (enzyme assay) it was 0.0167 µM.
As to `COc1cc(OC)c(-c2cn3ccc(C4=CCC5(CC4)OCCO5)cc3n2)cc1Cl` [Example 117, 2-(5-chloro-2,4-dimethoxyphenyl)-7-(1,4-dioxaspiro[4.5]dec-7-en-8-yl)-imidazo[1,2-a]pyridine], the IC50 in the assay on A549 (setting [1]) was 3.5 µM; in the assay on CCD-18Co (setting [2]), 7.7 µM; in the assay on HCT-116 (setting [3]) it was 3 µM; in the assay with HFL1 (setting [4]), 5.2 µM; on SUV39H2 (enzyme assay), 0.0633 µM.
For `COc1cc(OC)c(-c2cn3ccc(N4CCOCC4)cc3n2)cc1C` [Example 86, 4-(2-(2,4-dimethoxy-5-methylphenyl)imidazo[1,2-a]pyridin-7-yl)morpholine] the same measures were 14 µM, 13 µM, 14 µM, 8 µM and 0.0207 µM.
For `COc1cc(OC2CCCC2)c(-c2cn3ccc(N4CCOCC4)cc3n2)cc1Cl` [Example 90, 4-(2-(5-chloro-2-(cyclopentyloxy)-4-methoxyphenyl)imidazo[1,2-a]-pyridin-7-yl)morpholine] the same measures were 7.1 µM, 6 µM, 4.7 µM, 3.9 µM and 0.0584 µM.
Take `COc1cc(OC)c(-c2cn3ccc(N4CCC(CN)CC4)nc3n2)cc1Cl` [Example 31, (1-(2-(5-chloro-2,4-dimethoxyphenyl)imidazo[1,2-a]pyrimidin-7-yl)piperidin-4-yl)methanamine hydrochloride]: the 50% inhibitory concentration (IC50) in the assay on A549 (A549, 72 h) is 18 µM; with CCD-18Co (CCD-18Co, 72 h), 23 µM; in the assay with HCT-116 (HCT-116, 72 h), 22 µM; in the assay with HFL1 (HFL1, 72 h), 9.3 µM; on SUV39H2, 0.0489 µM.
`COc1cc(OC)c(-c2cn3ccc(C4=CCOCC4)cc3n2)cc1Cl` [Example 118, 2-(5-chloro-2,4-dimethoxyphenyl)-7-(3,6-dihydro-2H-pyran-4-yl)-imidazo[1,2-a]pyridine]: the half-maximal inhibitory concentration (IC50) turned out to be 6.9 µM in the assay on A549 (setting [1]); 11 µM with CCD-18Co (setting [2]); 9.1 µM in the assay with HCT-116 (setting [3]); 6.9 µM in the assay with HFL1 (setting [4]); 0.0661 µM at SUV39H2 (enzyme assay).
For `COc1cc(OC)c(-c2cn3ccc(N)nc3n2)cc1Br` [Example 2, 2-(5-bromo-2,4-dimethoxyphenyl)imidazo[1,2-a]pyrimidin-7-amine hydrochloride], the half-inhibitory concentration (IC50) amounted to 18 µM in the assay with A549 (A549, 72 h); 16 µM in the assay on CCD-18Co (CCD-18Co, 72 h); 17 µM in the assay with HCT-116 (HCT-116, 72 h); 16 µM in the assay on HFL1 (HFL1, 72 h); 0.0169 µM on SUV39H2.
For `COc1cc(OC)c(-c2cn3ccc(N4CCN(CCO)CC4)nc3n2)cc1Cl` [Example 45, 2-(4-(2-(5-chloro-2,4-dimethoxyphenyl)imidazo[1,2-a]pyrimidin-7-yl)-piperazin-1-yl)ethanol], the IC50 is 18 µM in the assay on A549 (setting [1]); 21 µM in the assay on CCD-18Co (setting [2]); 12 µM in the assay with HCT-116 (setting [3]); 17 µM with HFL1 (setting [4]); 0.0365 µM at SUV39H2 (enzyme assay).
For `COc1cc(OC)c(-c2cn3ccc(N4CC[C@H](NC(=O)OC(C)(C)C)C4)nc3n2)cc1Cl` [Example 56, (S)-tert-butyl (1-(2-(5-chloro-2,4-dimethoxyphenyl)imidazo[1,2-a]-pyrimidin-7-yl)pyrrolidin-3-yl)carbamate] the same measures were 7.5 µM, 7 µM, 7 µM, 5.7 µM and 0.0168 µM.
As to `COc1cc(OC)c(-c2cn3ccc(N4CCN(CCN)CC4)cc3n2)cc1Cl` [Example 29, 2-(4-(2-(5-chloro-2,4-dimethoxyphenyl)imidazo[1,2-a]pyridin-7-yl)piperazin-1-yl)ethanamine trihydrochloride], the IC50 in the assay on A549 (A549, 72 h) was 7 µM; with CCD-18Co (CCD-18Co, 72 h) it was 12 µM; in the assay with HCT-116 (HCT-116, 72 h) it was 9.7 µM; in the assay on HFL1 (HFL1, 72 h), 4.5 µM; at SUV39H2 it was 0.012 µM.
With `COc1cc(OC)c(-c2cn3ccc(N4CCC(N)C4)nc3n2)cc1Cl` (stereo not shown) [Example 34, 1-(2-(5-chloro-2,4-dimethoxyphenyl)imidazo[1,2-a]pyrimidin-7-yl)pyrrolidin-3-amine hydrochloride], the IC50 amounted to 12 µM in the assay on A549 (A549, 72 h); 11 µM with CCD-18Co (CCD-18Co, 72 h); 9.6 µM with HCT-116 (HCT-116, 72 h); 4.4 µM in the assay with HFL1 (HFL1, 72 h); 0.0273 µM at SUV39H2.
